Experimental data reported in patent US3997403A, “Antibiotic G-418 and the production thereof” (Schering Corporation, priority 1975, dated 1976).
Values after ≈ are worked out from the molar mass of the structure shown.

Key:
E. Histolytica = assay: Oral activity against experimental cecal E. Histolytica infections in rats; type: in vivo, male Royal Hart rats; settings: for A.D.I. (average degree of infection): scale 0 to 4, controls averaged 2.2
Excerpt: Table VII and Table VIII set forth in vivo test results which illustrate the antiprotozoal activity of Antibiotic G-418. The host for the tests were recently weaned male Royal Hart rats (3-4 weeks old) weighing about 50-70 g. The test procedure is a modification of one described by R. J. Schnitzer on pages 355-443 in Experimental Chemotherapy, Vol. 1, Academic Press, New York (1963).
*A.D.I. -- defined as the average degree of infection based upon gross
observations of pathological changes in the cecum and microscopic
observations of the number of amoebae found. These observations are
recorded on a scale of from zero to four, zero representing a
substantially normal cecum. Untreated but infected controls range from
about two to four. In the data set forth the controls averaged 2.2.

[1] = tested on: Pseudomonas aeruginosa 83; assay: In Vitro Antibacterial Activity (Table V); type: cell-based; settings: P. aeruginosa 83, Mueller-Hinton Broth pH 7.2 - 7.5
Excerpt: (§1) In Table IV and Table V are set forth the in vitro antibacterial spectrum of Antibiotic G-418 against a variety of gram-positive and gram-negative bacteria using standard art recognized methods.
(§2) *Mueller -- Hinton Broth pH 7.2 - 7.5

Proteus rettgeri 9250 = assay: In Vitro Antibacterial Activity (Table V); type: cell-based; settings: Providencia rettgeri, Mueller-Hinton Broth pH 7.2 - 7.5
Excerpt: as §1, §2

Staphylococcus aureus 32 = assay: In Vitro Antibacterial Activity (Table V); type: cell-based; settings: S. aureus 32, Mueller-Hinton Broth pH 7.2 - 7.5
Excerpt: as §1, §2

Streptococcus sp. 3045 = assay: In Vitro Antibacterial Activity (Table V); type: cell-based; settings: Mueller-Hinton Broth pH 7.2 - 7.5
Excerpt: as §1, §2

Bacillus subtilis 6633 = assay: In Vitro Antibacterial Activity (Table V); type: cell-based; settings: B. subtilis 6633, Mueller-Hinton Broth pH 7.2 - 7.5
Excerpt: as §1, §2

Staphylococcus aureus 12 = assay: In Vitro Antibacterial Activity (Table V); type: cell-based; settings: S. aureus 12, Mueller-Hinton Broth pH 7.2 - 7.5
Excerpt: as §1, §2

Escherichia coli 887 = assay: In Vitro Antibacterial Activity (Table V); type: cell-based; settings: E. coli 887, Mueller-Hinton Broth pH 7.2 - 7.5
Excerpt: as §1, §2

Proteus mirabilis 12453 = assay: In Vitro Antibacterial Activity (Table V); type: cell-based; settings: Mueller-Hinton Broth pH 7.2 - 7.5
Excerpt: as §1, §2

Streptococcus sp. 16245 = assay: In Vitro Antibacterial Activity (Table V); type: cell-based; settings: Mueller-Hinton Broth pH 7.2 - 7.5
Excerpt: as §1, §2

[2] = tested on: Staphylococcus aureus Sm 1; assay: In Vitro Antibacterial Activity (Table V); type: cell-based; settings: SM1, S. aureus Sm 1, Mueller-Hinton Broth pH 7.2 - 7.5
Excerpt: as §1, §2

[3] = tested on: Pseudomonas aeruginosa 1236; assay: In Vitro Antibacterial Activity (Table V); type: cell-based; settings: P. aeruginosa 1236, Mueller-Hinton Broth pH 7.2 - 7.5
Excerpt: as §1, §2

With `CN[C@@H]1[C@@H](O)[C@@H](O[C@@H]2[C@@H](O)[C@H](O[C@H]3O[C@H]([C@@H](C)O)[C@@H](O)[C@H](O)[C@H]3N)[C@@H](N)C[C@H]2N)OC[C@]1(C)O` [Antibiotic G-418] the “Parasitological Cure Negative/Total” value (E. Histolytica; oral 3.5 mg/kg/day, 3 days) was 0/7, the “A.D.I. (average degree of infection)” value (E. Histolytica; oral 3.5 mg/kg/day, 3 days) was 1.7 and the “Parasitological Cure Negative/Total” value (E. Histolytica; oral 3.5 mg/kg/day, 6 days) was 5/6. The “A.D.I. (average degree of infection)” value (E. Histolytica; oral 3.5 mg/kg/day, 6 days) was 0.2, the “Parasitological Cure Negative/Total” value (E. Histolytica; oral 6.5 mg/kg/day, 1 day) was 2/5 and the “A.D.I. (average degree of infection)” value (E. Histolytica; oral 6.5 mg/kg/day, 1 day) was 1.0. The “Parasitological Cure Negative/Total” value (E. Histolytica; oral 6.5 mg/kg/day, 3 days) was 4/5, the “A.D.I. (average degree of infection)” value (E. Histolytica; oral 6.5 mg/kg/day, 3 days) was 0.4 and the “Parasitological Cure Negative/Total” value (E. Histolytica; oral 6.5 mg/kg/day, 6 days) was 4/4. The “A.D.I. (average degree of infection)” value (E. Histolytica; oral 6.5 mg/kg/day, 6 days) was 0, the “Parasitological Cure Negative/Total” value (E. Histolytica; oral 10 mg/kg/day, 1 day) was 4/7 and the “A.D.I. (average degree of infection)” value (E. Histolytica; oral 10 mg/kg/day, 1 day) was 0.7. For the same molecule, the “Parasitological Cure Negative/Total” value (E. Histolytica; oral 10 mg/kg/day, 3 days) was 7/7, the “A.D.I. (average degree of infection)” value (E. Histolytica; oral 10 mg/kg/day, 3 days) was 0 and the “Parasitological Cure Negative/Total” value (E. Histolytica; oral 12.5 mg/kg/day, 6 days) was 24/24. For the same molecule, the “A.D.I. (average degree of infection)” value (E. Histolytica; oral 12.5 mg/kg/day, 6 days) was 0, the “Parasitological Cure Negative/Total” value (E. Histolytica; oral 25 mg/kg/day, 6 days) was 19/19 and the “A.D.I. (average degree of infection)” value (E. Histolytica; oral 25 mg/kg/day, 6 days) was 0. The MIC [1] was 7.5 µg/mL (≈ 15.1 µM), the MIC (Proteus rettgeri 9250) was 0.3 µg/mL (≈ 0.604 µM) and the MIC (Staphylococcus aureus 32) was 7.5 µg/mL (≈ 15.1 µM). It also gave an MIC (Streptococcus sp. 3045) of 7.5 µg/mL (≈ 15.1 µM), an MIC (Bacillus subtilis 6633) of 3 µg/mL (≈ 6.04 µM) and an MIC (Staphylococcus aureus 12) of 3 µg/mL (≈ 6.04 µM). It also gave an MIC (Escherichia coli 887) of 3 µg/mL (≈ 6.04 µM), an MIC (Proteus mirabilis 12453) of 7.5 µg/mL (≈ 15.1 µM) and an MIC (Streptococcus sp. 16245) of 7.5 µg/mL (≈ 15.1 µM). The MIC [2] was 0.3 µg/mL (≈ 0.604 µM) and the MIC [3] was 17.5 µg/mL (≈ 35.2 µM).
